Reference: publication PMC8147781, “Discovery of Pyrrolidine-2,3-diones as Novel Inhibitors of P. aeruginosa PBP3” (Antibiotics, 2021)
≈ marks a conversion by molar mass, not a printed value. Where “and” joins values, the source holds several entries; their conditions need not be identical. Equal entries are not always repeated.

Key:
[1] = target: T1, PBP3 of P. aeruginosa (PaPBP3) (Pseudomonas aeruginosa, UniProt G3XD46); test: FP-Bocillin FL competition assay; assay type: binding; settings: 30 min preincubation before Bocillin FL, 37 °C; read-out: IC50 Determination with PaPBP3, FP-Bocillin FL Assay
T1 construct: P. aeruginosa PBP3 (amino acids 40 to 563); His-tag; made in house; host or cells: E. coli BL21 (DE3) Rosetta, plasmid pET41_PBP-3
T1 sequence (G3XD46 40-563): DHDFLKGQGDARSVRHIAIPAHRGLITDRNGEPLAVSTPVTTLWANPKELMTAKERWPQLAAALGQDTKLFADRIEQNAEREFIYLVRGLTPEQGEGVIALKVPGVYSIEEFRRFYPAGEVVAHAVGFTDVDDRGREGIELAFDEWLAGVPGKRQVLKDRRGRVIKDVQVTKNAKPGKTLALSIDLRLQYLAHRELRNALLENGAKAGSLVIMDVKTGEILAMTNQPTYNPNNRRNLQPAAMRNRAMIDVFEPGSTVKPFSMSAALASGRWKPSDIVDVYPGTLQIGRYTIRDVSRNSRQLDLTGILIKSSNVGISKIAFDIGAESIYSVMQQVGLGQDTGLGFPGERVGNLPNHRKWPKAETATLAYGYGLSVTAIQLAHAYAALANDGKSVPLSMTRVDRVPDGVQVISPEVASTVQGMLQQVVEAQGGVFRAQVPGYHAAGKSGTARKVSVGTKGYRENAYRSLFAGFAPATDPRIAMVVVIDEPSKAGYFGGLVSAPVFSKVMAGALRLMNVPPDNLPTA
Description: Bocillin FL is a fluorescent penicillin V derivate used as a competitor for PBP inhibitors.
Fluorescence polarisation (FP) experiments were carried out as described before. To determine the binding of Bocillin FL to PBP, 200 nM of ^PaPBP3 was incubated for 30 min with 100 nM of Bocillin FL (Thermo Fisher Scientific, Waltham, MA, USA). The fluorescence polarisation signal of free Bocillin FL was monitored in a Pherastar microplate reader (BMG Labtech, Ortenberg, Germany) in the polarisation mode with Ex/Em: 485/520 nm excitation and emission filters. Millipolarisation (mP) units were calculated using the MARS data analysis software v30.40.R2 (BMG Labtech, Ortenberg, Germany). All the experiments were done in Sorensen buffer at 37 °C using flat-bottom, black 96-well plates. […] Bocillin FL was diluted in Sorensen buffer and added to the reaction and directly measured for 30 min at 37 °C. The FP was continuously measured in the presence and absence of compound and enzyme. […] The estimated IC50 values were established by sigmoidal nonlinear regression, using Prims v.8 software.

[2] = tested on: P. aeruginosa K2896 ΔmexBΔmexXYΔmexCD-oprJ; test: MIC broth microdilution, P. aeruginosa K2896 efflux mutant; assay type: cell-based, Pseudomonas aeruginosa; settings: ΔmexB; ΔmexX, ΔmexCD-oprJ, with 4 µg/mL PMBN
Excerpt: (§1) The results presented above implied that seven pyrrolidine-2,3-dione derivatives inhibited the activity of ^PaPBP3 in vitro. Consequently, we were very interested in investigating the potential of these compounds to affect the growth of P. aeruginosa. Two P. aeruginosa bacterial strains (the wild-type PAO1 and the isogenic ΔmexB ΔmexX ΔmexCD-oprJ efflux pump mutant) were used to determine the MIC and the potential role of the main P. aeruginosa efflux systems in compound uptake. To increase the antibacterial sensitivity of the tested P. aeruginosa isolates to the potential inhibitors, we performed MIC experiments in the presence and absence of a sub-MIC concentration (4 µg/mL) of the outer membrane permeabilising polymyxin B nonapeptide (PMBN). […] Thus, we concluded that the physicochemical properties of the pyrrolidine-2,3-dione compounds were perhaps not yet favourable enough to cross the P. aeruginosa cell envelope without a permeabiliser because of their high hydrophobicity.
(§2) The wild-type P.aeruginosa PAO1 and the isogenic P. aeruginosa K2896 ΔmexBΔmexXYΔmexCD-oprJ isolates were used to determine the MIC in the presence and absence of PMBN [48].
(§3) MIC determination was performed via standard broth microdilution according to the Clinical & Laboratory Standards institute guidelines. Overnight colonies grown on BD-Columbia agar with 5% Sheep Blood (Becton Dickinson, Franklin Lakes, NJ, USA), were diluted in Mueller Hinton Broth 2 cation adjusted (MH+) medium (Thermo Fisher Scientific) to a concentration of 5 × 10^5 CFU/mL. Serial dilutions (1:2) of test compounds were incubated at 37 °C with 5 × 10^4 bacteria in a final volume of 100 μL. Sterile and growth controls in the presence of 1% DMSO and PMBN if the case, and the positive controls, aztreonam (AZT) and tigecycline (TIG) were included in the experiments (Table S4). The MICs were determined visually after 18 h at 37 °C and confirmed by the addition of 10% PrestoBlue (ThermoFisher Scientific) reagent according to the manufacture’s protocol. The fluorescence signal of PrestoBlue reagent was measured at Ex/Em: 550/595 nm after 30 min incubation at 37 °C using at a ClarioStar microplate reader (BMG Labtech). PrestoBlue reduction occurs in the presence of living cells and consequently turns red in colour and is highly fluorescent.

[3] = tested on: P. aeruginosa PAO1 (wild-type strain); test: MIC broth microdilution, P. aeruginosa PAO1; assay type: cell-based, Pseudomonas aeruginosa; settings: wild-type strain, with 4 µg/mL PMBN
Excerpt: as §1, §2, §3

[4] = target: T2, PaPBP3 coated on a CM5 chip (Pseudomonas aeruginosa, UniProt G3XD46); test: Surface plasmon resonance (SPR), steady-state analysis; assay type: binding; settings: 25 °C
T2 construct: P. aeruginosa PBP3 (amino acids 40 to 563); His-tag; made in house; host or cells: E. coli BL21 (DE3) Rosetta, plasmid pET41_PBP-3
T2 sequence (G3XD46 40-563): as above
Description: Next, we confirmed the binding of the best inhibitors (analogues 34, 35, 40, 38 and 37) by surface plasmon resonance (SPR), using ^PaPBP3 coated on a CM5 chip as the ligand. The sensorgrams (Figure A1C and Figure A2C) indicated fast association and dissociation with all compounds tested. Dissociation constants (Kd) were determined via steady-state analysis using the maximum resonance signal obtained with a range of analyte concentrations.
SPR experiments were performed at 25 °C by using a Biacore T200 instrument from Cytiva (Marlborough, MA, USA). Purified ^PaPBP3 was coated on a CM5 chip, that was activated with EDC/NHS (1-ethyl-3-(3-dimethylaminopropyl) carbodiimide/N-hydroxysuccinimide) beforehand and blocked with ethanolamine after protein attachment. We achieved a protein amount of 11.820 RU. For every analyte, two concentration series between 3.25 µM and 200 µM were prepared in the running buffer (13 mM NaCl, 257 µM KCl, 171 µM KH2PO4, 950 µM Na2HPO4, 0.05% Tween-20 and 5% DMSO, pH 7.4) in a 96 well plate. Prior to the injection, the baseline was determined using running buffer for 300 s. Then, the analytes were then associated for 100 s and dissociated for 300 s with a flow rate of 30 µL/min. A 30 s washing step with 50% DMSO was used after every injection to regenerate the chip. In the final step, ten different DMSO concentrations ranging from 4.0% to 5.8% were used as the internal solvent correction. Steady state analysis was performed by using the internal Biacore software and figures were prepared with Prism v.8 using the points of one concentration series, respectively.

SMILES | IC50 [1] | MIC (µM) against P. aeruginosa K28926 [2] [µM] | MIC (µM) against P. aeruginosa PAO1 [3] [µM] | Kd [4] | Kd (µM) SPR [4]
O=C(C1=C(O)C(=O)N(Cc2cccc(F)c2)C1c1ccc(Cl)cc1)c1ccc(Br)cc1 (centres unmarked) [Compound 1] | 7 ± 3 µM | 12.5 (≈ 6.26 µg/mL) |  |  | 
O=C1NC(c2ccc(Cl)cc2)C(C(=O)c2ccc(Br)cc2)=C1O (centres unmarked) [Compound 32, 4-(4-bromobenzoyl)-5-(4-chlorophenyl)-3-hydroxy-1,5-dihydropyrrol-2-one] | > 100 µM | >100 | >100 |  | 
CCN1C(=O)C(O)=C(C(=O)c2ccc(Br)cc2)C1c1ccc(Cl)cc1 (centres unmarked) [Compound 33] | > 100 µM | >100 | >100 |  | 
O=C(C1=C(O)C(=O)N(Cc2cc3ccccc3[nH]2)C1c1ccc(Cl)cc1)c1ccc(Br)cc1 (centres unmarked) [Compound 34, 4-(4-bromobenzoyl)-5-(4-chlorophenyl)-3-hydroxy-1-(1H-indol-2-ylmethyl)-5H-pyrrol-2-one] | 4 ± 4 µM |  |  | 6.4 µM and 6.44 µM | 
O=C(C1=C(O)C(=O)N(Cc2cc3cc(Cl)ccc3[nH]2)C1c1ccc(Cl)cc1)c1ccc(Br)cc1 (centres unmarked) [Compound 35] | 2 µM and 0.6 µM |  |  | 9.8 µM and 9.82 µM | 
O=C(C1=C(O)C(=O)N(Cc2cc3cnccc3[nH]2)C1c1ccc(Cl)cc1)c1ccc(Br)cc1 (centres unmarked) [Compound 36] | > 100 µM | 100 (≈ 52.3 µg/mL) | >100 |  | 
O=C(C1=C(O)C(=O)N(CCc2cc3ccccc3[nH]2)C1c1ccc(Cl)cc1)c1ccc(Br)cc1 (centres unmarked) [Compound 37] | 17 ± 3 µM |  |  | 454 µM | too high to conclude a specific binding
O=C(C1=C(O)C(=O)N(Cc2nc3ccccc3[nH]2)C1c1ccc(Cl)cc1)c1ccc(Br)cc1 (centres unmarked) [Compound 38] | 117 ± 4 µM | >100 | >100 | 62.7 µM | 
O=C(C1=C(O)C(=O)N(CCc2c[nH]c3ccccc23)C1c1ccc(Cl)cc1)c1ccc(Br)cc1 (centres unmarked) [Compound 40] | 4 ± 2 µM |  |  | 22.9 µM | 
O=C(C1=C(O)C(=O)N(Cc2ccco2)C1c1ccc(Cl)cc1)c1ccc(Br)cc1 (centres unmarked) [Compound 41, 4-(4-bromobenzoyl)-5-(4-chlorophenyl)-1-(furan-2-ylmethyl)-3-hydroxy-5H-pyrrol-2-one] | > 100 µM | 25 (≈ 11.8 µg/mL) |  |  | 
O=C(C1=C(O)C(=O)N(Cc2cscn2)C1c1ccc(Cl)cc1)c1ccc(Br)cc1 (centres unmarked) [Compound 42] | > 100 µM | >100 | >100 |  | 
CCNC1=C(C(=O)c2ccc(Br)cc2)C(c2ccc(Cl)cc2)N(Cc2cccc(F)c2)C1=O (centres unmarked) [Compound 43, 4-(4-bromobenzoyl)-5-(4-chlorophenyl)-3-(ethylamino)-1-[(3-fluorophenyl)methyl]-5H-pyrrol-2-one] | > 100 µM | >100 | >100 |  | 
O=C(C1=C(N2CCOCC2)C(=O)N(Cc2cccc(F)c2)C1c1ccc(Cl)cc1)c1ccc(Br)cc1 (centres unmarked) [Compound 44, 4-(4-bromobenzoyl)-5-(4-chlorophenyl)-1-[(3-fluorophenyl)methyl]-3-(morpholin-4-yl)-5H-pyrrol-2-one] | > 100 µM | >100 | >100 |  | 
CCNC1=C(C(=O)c2ccc(Br)cc2)C(c2ccc(Cl)cc2)N(Cc2c[nH]c3ccccc23)C1=O (centres unmarked) [Compound 45] | > 100 µM | >100 | >100 |  | 
